Measurements reported in patent publication US20210228463A1, “COMPOSITION FOR FAT FORMATION INHIBITION AND BODY FAT REDUCTION, CONTAINING HYDRANGENOL AS ACTIVE INGREDIENT” (COSMAX BIO CO., LTD., priority 2019, published 2021).

Assays:
forkhead box 01 (FoxO1) = assay: Western blotting of p-FOXO1 in adipocytes; assay type: cell-based; settings: 3T3-L1 differentiated for 10 days, hydrangenol 2.5 ug/ml, 24 hours, FIG. 3
Method: The mechanism of reducing triglyceride in adipocytes was examined for the hydrangenol-containing hydrangea (Hydrangea serrata) and hydrangenol. A pre-adipocyte 3T3-L1 was differentiated for 10 days and treated with hydrangea (Hydrangea serrata) (25 ug/ml) and hydrangenol (2.5 ug/ml) for 24 hours, respectively. Thereafter, the cells were lysed using a modified LIPA buffer, and each 20 ug thereof was used for analysis. p-mTOR(ab109268, Abcam), p-FOXO1(9461S, Cell Signaling), PPARγ(sc-7273, Santa Cruz), and β-actin(A5316, Sigma) primary antibodies were used for analysis, respectively.

[1] = Body weight- and fat-reducing effects of WHS in obese mice; assay type: in vivo; settings: obese mice (HFD)
Method: To analyze in vivo anti-obesity efficacy of WHS, animal models of obesity were first prepared. 8-week-old male C57BL/6N mice (specific-pathogen-free (SPF) grade, 20±2 g, Orient Bio) were set into 7 groups as follows, and 10 mice per each group were tested: as normal control groups, normal mice (con) with no high fat diet and no administration, and obese mice (HFD) with induction of obesity by 30% high fat diet and no administration, and as a positive control group, obese mice with oral administration of orlistat which is an anti-obesity agent. As experimental groups, obese mice with oral administration of WHS of 75 mg/kg, 150 mg/kg, or 300 mg/kg, and normal mice with oral administration of WHS of 300 mg/kg were used. Further, experiments were performed by dividing mice into those which were administered with WHS for 12 weeks at the same time with induction of obesity, and those which were administered with WHS after induction of obesity for 10 weeks. WHS was orally administered for 5 days per week during the administration period. A dark: light cycle was maintained at intervals of 12 hours: 12 hours, and mice were allowed to free access to water. […] In addition, images of a fat distribution and body fat contents of mice of each experimental group were measured by dual-energy X-ray absorptiometry in the last week of the animal test. […]

Row | SMILES | phosphorylation of forkhead box 01 (FoxO1) (forkhead box 01 (FoxO1)) | changes in the body weight ([1]; oral administration at the same time with induction of obesity (12 weeks) or after induction of obesity (10 weeks), FIGS. 4 and 5) | body fat (dual-energy X-ray absorptiometry, fat weight) ([1]; oral administration at the same time with or after induction of obesity, FIGS. 6, 7, 8, and 9)
1 | O=C1OC(c2ccc(O)cc2)Cc2cccc(O)c21 (stereo not drawn) [HG, 8-hydroxy-3-(4-hydroxyphenyl)-3,4-dihydroisochromen-1-one] | increase |  | 
2 | CCCCCCCCCCC[C@@H](C[C@@H]1OC(=O)[C@H]1CCCCCC)OC(=O)[C@H](CC(C)C)NC=O [Orlistat, orlistat] |  | body weight-reducing effects were observed | decreased
